Patent US20240224993A1, “ANTIMICROBIAL COMPOSITIONS” (GOJO Industries, Inc., priority 2009, published 2024)

Assays:
S. marcescens #14756 = experiment: ASTM E 2315 time-kill procedure, S. marcescens; assay type: cell-based; settings: contact time 15 seconds
Protocol: (§1) In vitro efficacy of these compositions was measured against E. coli, S. aureus, E. faecium, S. marcescens, S. aureus (MRSA), P. mirabilis, K. pneumoniae, and S. epidermidis. The test was conducted according to the ASTM E 2315 method, “Standard Guide for Assessment of Antimicrobial Activity Using a Time-Kill Procedure.” Contact time was 15 seconds.
(§2) In vitro efficacy of these compositions was measured against S. marcescen, and S. aureus. The test was conducted according to the ASTM E 2315 method, “Standard Guide for Assessment of Antimicrobial Activity Using a Time-Kill Procedure.” Contact time was 15 seconds.

S. aureus #6538 = experiment: ASTM E 2315 time-kill procedure, S. aureus; assay type: cell-based; settings: contact time 15 seconds
Protocol: as §1, §2

[1] = 0.5 wt. % diol, 0 wt. % ethanol
[2] = 0.5 wt. % diol, 15 wt. % ethanol
[3] = 0.5 wt. % diol, 30 wt. % ethanol
[4] = 1.0 wt. % diol, 0 wt. % ethanol
[5] = 1.0 wt. % diol, 15 wt. % ethanol
[6] = 1.0 wt. % diol, 30 wt. % ethanol

| Structure (SMILES) | Log Reduction-S. marcescens #14756 (S. marcescens #14756; [1]) | Log Reduction-S. marcescens #14756 (S. marcescens #14756; [2]) | Log Reduction-S. marcescens #14756 (S. marcescens #14756; [3]) | Log Reduction-S. marcescens #14756 (S. marcescens #14756; [4]) | Log Reduction-S. marcescens #14756 (S. marcescens #14756; [5]) | Log Reduction-S. marcescens #14756 (S. marcescens #14756; [6]) | Log Reduction-S. aureus #6538 (S. aureus #6538; [1]) | Log Reduction-S. aureus #6538 (S. aureus #6538; [2]) | Log Reduction-S. aureus #6538 (S. aureus #6538; [3]) | Log Reduction-S. aureus #6538 (S. aureus #6538; [4]) | Log Reduction-S. aureus #6538 (S. aureus #6538; [5]) | Log Reduction-S. aureus #6538 (S. aureus #6538; [6]) | Log Reduction-S. marcescens #14756 (S. marcescens #14756; 0 wt. % diol, 30 wt. % ethanol) | Log Reduction-S. aureus #6538 (S. aureus #6538; 0 wt. % diol, 30 wt. % ethanol) |
| --- | --- | --- | --- | --- | --- | --- | --- | --- | --- | --- | --- | --- | --- | --- |
| CCCCCCC(O)CO (centres unmarked) [1,2-octanediol] | 0.3 log | 0.1 log | >5.1 log | 3.5 log | 2.3 log | >5.1 log | 0 log | 0.2 log | 0.1 log | 0.2 log | 2.6 log | 0.9 log |  |  |
| CCO [ethanol] |  |  |  |  |  |  |  |  |  |  |  |  | 0.45 log | 0 log |
